Measurements from patent US9248117B2, “Substituted N,N-dihaloamines as antimicrobials” (priority 2010, dated 2016).
≈ marks a conversion by molar mass, not a printed value.

Legend:
C. albicans 10231 = experiment: MBC/MFC against C. albicans 10231; assay type: cell-based; settings: Candida albicans
S. aureus 29213 = experiment: MBC/MFC against S. aureus 29213; assay type: cell-based; settings: Staphylococcus aureus
L929 cells = experiment: CT50 cytotoxicity in L929 cells; settings: pH 7 phosphate
E. coli 25922 = experiment: MBC/MFC against E. coli 25922; assay type: cell-based; settings: Escherichia coli

Compound	MFC (C. albicans 10231; pH 4 acetate, Table 4) [µg/mL]	MFC (C. albicans 10231; pH 7 phosphate, Table 4) [µg/mL]	MBC (S. aureus 29213; pH 4 acetate, Table 4) [µg/mL]	MBC (S. aureus 29213; pH 7 phosphate, Table 4) [µg/mL]	CT50 L929 cells (L929 cells; Table 4) [mM]	MBC (E. coli 25922; pH 4 acetate, Table 4) [µg/mL]	MBC (E. coli 25922; pH 7 phosphate, Table 4) [µg/mL]	MFC (C. albicans 10231; pH 4 acetate, Table 3) [µg/mL]	MFC (C. albicans 10231; pH 7 phosphate, Table 3) [µg/mL]	MBC (S. aureus 29213; pH 4 acetate, Table 3) [µg/mL]	MBC (S. aureus 29213; pH 7 phosphate, Table 3) [µg/mL]	CT50 L929 cells (L929 cells; Table 3) [mM]	MBC (E. coli 25922; pH 4 acetate, Table 3) [µg/mL]	MBC (E. coli 25922; pH 7 phosphate, Table 3) [µg/mL]
COCCOCCOCCOCCN1C(=O)C(C)(C)N(Cl)C1(C)C [Compound 39-12, 1-chloro-2,2,5,5-tetramethyl-3-(2,5,8,11-tetraoxatridecan-13-yl)imidazolidin-4-one]	16 (≈ 43.6 µM)	> 1020	8 (≈ 21.8 µM)	256 (≈ 698 µM)	0.18	8 (≈ 21.8 µM)	256 (≈ 698 µM)							
COCCOCCOCCN1C(=O)C(C)(C)N(Cl)C1(C)C [Compound 39-04, 1-Chloro-3-(2-(2-(2-methoxyethoxy)ethoxy)ethyl)-2,2,5,5-tetramethylimidazolidin-4-one]	16 (≈ 49.6 µM)	1020 (≈ 3170 µM)	2 (≈ 6.2 µM)	256 (≈ 793 µM)	0.14	2 (≈ 6.2 µM)	256 (≈ 793 µM)							
CC1(C)C(=O)N(CC(O)CO)C(C)(C)N1Cl (stereo not shown) [Compound 39-27, 1-chloro-3-(2,3-dihydroxypropyl)-2,2,5,5-tetramethylimidazolidin-4-one]	16 (≈ 63.8 µM)	> 2050	4 (≈ 16 µM)	1020 (≈ 4080 µM)	0.14	4 (≈ 16 µM)	512 (≈ 2040 µM)							
COCCN1C(=O)C(C)(C)N(Cl)C1(C)C [Compound 39-01, 1-chloro-3-(2-methoxyethyl)-2,2,5,5-tetramethylimidazolidin-4-one]	8 (≈ 34.1 µM)	256 (≈ 1090 µM)	2 (≈ 8.52 µM)	128 (≈ 545 µM)	0.08	2 (≈ 8.52 µM)	128 (≈ 545 µM)							
COCCOCCOCCOCCOCCOCCOCCOCCOCCOCCOCCOCCOCCOCCN1C(=O)C(C)(C)N(Cl)C1(C)C [Compound 39-116, 1-chloro-2,2,5,5-tetramethyl-3-(2,5,8,11,14,17,20,23,26,29,32,35,38,41-tetradecaoxatritetracontan-43-yl)imidazolidin-4-one]	128 (≈ 159 µM)	> 2050	16 (≈ 19.8 µM)	1020 (≈ 1270 µM)	4.1	16 (≈ 19.8 µM)	512 (≈ 634 µM)							
CC1(C)CN(CCO)C(=O)C(C)(C)N1Cl [Compound 39-108, 4-chloro-1-(2-hydroxyethyl)-3,3,5,5-tetramethylpiperazin-2-one]	8 (≈ 34.1 µM)	64 (≈ 273 µM)	2 (≈ 8.52 µM)	128 (≈ 545 µM)	0.1	1 (≈ 4.26 µM)	32 (≈ 136 µM)							
COCCOCCOCC[N+]1(C)CC(C)(C)N(Cl)C(C)(C)C1.[Cl-] [Compound 39-106, 4-chloro-1-(2-(2-(2-methoxyethoxy)ethoxy)ethyl)-1,3,3,5,5-pentamethylpiperazin-1-ium chloride]	64	> 512	32	> 512	0.24	16	256							
CCCCCCOCC[N+](C)(C)CCC(C)(C)N(Cl)Cl.Cc1ccc(S(=O)(=O)[O-])cc1 [Compound 38-135, 3-(dichloroamino)-N-(2-(hexyloxy)ethyl)-N,N,3-trimethylbutan-1-aminium 4-methylbenzenesulfonate]								32	> 1020	2	512	0.08	8	256
COCCOCCOCCOCCS(=O)(=O)CCC(C)(C)N(Cl)Cl [Compound 38-147, N,N-dichloro-2-methyl-4-(2-(2-(2-(2-methoxyethoxy)ethoxy)ethoxy)ethylsulfonyl)butan-2-amine]								> 256	2050 (≈ 4990 µM)	8 (≈ 19.5 µM)	128 (≈ 312 µM)	0.039	8 (≈ 19.5 µM)	256 (≈ 624 µM)
CCCCOCC[N+](C)(C)CCC(C)(C)N(Cl)Cl.[Cl-] [Compound 38-133, N-(2-butoxyethyl)-3-(dichloroamino)-N,N,3-trimethylbutan-1-aminium chloride]								64	1020	8	128	0.26	8	128
COCCOCCOCCS(=O)(=O)CC(C)(C)N(Cl)Cl [Compound 38-01, dichloro[1-({2-[2-(2-methoxyethoxy)ethoxy]ethane}sulfonyl)-2-methylpropan-2-yl]amine]								32 (≈ 90.8 µM)	> 512	2 (≈ 5.68 µM)	256 (≈ 727 µM)	0.06	2 (≈ 5.68 µM)	256 (≈ 727 µM)
CC(C)(CCS(=O)(=O)CCOCCS(=O)(=O)O)N(Cl)Cl [Compound 38-83, 2-(2-(3-(dichloroamino)-3-methylbutylsulfonyl)ethoxy)ethanesulfonic acid]								128 (≈ 344 µM)	> 1020	1 (≈ 2.69 µM)	256 (≈ 688 µM)	1.74	2 (≈ 5.37 µM)	128 (≈ 344 µM)
CN1CC(C)(CO)N(Cl)C1=O (stereo not shown) [Compound 39-124, 3-chloro-4-(hydroxymethyl)-1,4-dimethylimidazolidin-2-one]	8 (≈ 44.8 µM)	> 1020	16 (≈ 89.6 µM)	32 (≈ 179 µM)	0.33	16 (≈ 89.6 µM)	8 (≈ 44.8 µM)							
CC(C)(CCS(=O)(=O)CC(O)CO)N(Cl)Cl (stereo not shown) [Compound 38-27, 3-(3-(Dichloroamino)-3-methylbutylsulfonyl)propane-1,2-diol]								> 256	> 1020	2 (≈ 6.8 µM)	4 (≈ 13.6 µM)	0.13	2 (≈ 6.8 µM)	16 (≈ 54.4 µM)
COCCOCCN1C(=O)C(C)(C)N(Cl)C1(C)C [Compound 39-112, 1-chloro-3-(2-(2-methoxyethoxy)ethyl)-2,2,5,5-tetramethylimidazolidin-4-one]	8 (≈ 28.7 µM)	1020 (≈ 3670 µM)	8 (≈ 28.7 µM)	128 (≈ 459 µM)	0.16	4 (≈ 14.3 µM)	128 (≈ 459 µM)							
CC(C)(CCS(=O)(=O)CCOCCOCCO)N(Cl)Cl [Compound 38-85, 2-(2-(2-(3-(Dichloroamino)-3-methylbutylsulfonyl)ethoxy)ethoxy)ethanol]								32 (≈ 90.8 µM)	> 1020	4 (≈ 11.4 µM)	64 (≈ 182 µM)	0.04	4 (≈ 11.4 µM)	64 (≈ 182 µM)
COCCOCCOCCCN1C(=O)C(C)(C)N(Cl)C1(C)C [Compound 39-114, 1-chloro-3-(3-(2-(2-methoxyethoxy)ethoxy)propyl)-2,2,5,5-tetramethylimidazolidin-4-one]	8 (≈ 23.7 µM)	> 1020	4 (≈ 11.9 µM)	256 (≈ 760 µM)	0.24	8 (≈ 23.7 µM)	256 (≈ 760 µM)							
CC(C)(CCS(=O)(=O)CCOCCOCCS(=O)(=O)O)N(Cl)Cl [Compound 38-81, 2-(2-(2-(3-(dichloroamino)-3-methylbutylsulfonyl)ethoxy)ethoxy) ethanesulfonic acid]								128 (≈ 307 µM)	> 2050	4 (≈ 9.61 µM)	256 (≈ 615 µM)	2.13	2 (≈ 4.8 µM)	32 (≈ 76.9 µM)
CC1(C)C(=O)N(CCCCO)C(C)(C)N1Cl [Compound 39-125, 1-chloro-3-(4-hydroxybutyl)-2,2,5,5-tetramethylimidazolidin-4-one]	128 (≈ 515 µM)	> 1020	2 (≈ 8.04 µM)	256 (≈ 1030 µM)	2.21	2 (≈ 8.04 µM)	32 (≈ 129 µM)							
